Measurements from patent US4738968A, “1,8-naphthyridine derivatives useful as anti-bacterial agents” (Dainippon Pharmaceutical Co., Ltd., priority 1985, dated 1988).
Converted amounts (≈) assume the structure as drawn.

Assays:
[1] = system: Staphylococcus aureus 50774; experiment: In vivo efficacy against systemic infection in mice, S. aureus 50774; design: species or system mice (ddY-S); details: Staphylococcus aureus, 50774, 336 h, iv infection 5×10^8 cells, drug iv twice, immediately and 6 hours after infection, 14 days observation, calculated for free base, read-out: median effective dose (ED50)
Protocol: (§1) Compounds were each dissolved in deionized water. Each of the solutions was intravenously (iv) administered to mice infected by each of the test organisms under the conditions shown hereinbelow, and the median effective dose (ED50) was calculated by probit analysis. The numerals in the table show ED50 (mg/kg) value, caluclated for free base. Experimental conditions: Mice: Male mice (ddY-S) weighing about 20 g Infection: Staphylococcus aureus 50774 Intravenous infection with 5×10^8 cells per mouse suspended in saline. Medication: Twice, immediately and 6 hours after infection. Observation: For 14 days in the case of Staphylococcus aureus 50774. For 7 days in the case of Streptococcus pyogenes […].

[2] = system: E. coli P-5101; experiment: In vitro antibacterial activity, twofold agar-dilution MIC; type: cell-based; details: Escherichia coli, P5101; E. coli P-5101, Gram -; calculated for free base; 20-hour incubation at 37° C; read-out: minimum inhibitory concentration (MIC)
Protocol: (§2) The antibacterial activity in vitro is show in Table 1. The numbers in the table show minimum inhibitory concentrations (MIC) (μg/ml), calculated for free base. The minimum inhibitory concentration was determined by the twofold agar-dilution method, which was recommended by Japan Society of Chemotherapy (Chemotherapy, 29(1), 76(1981)), using Muller-Hinton agar. One loopful of an overnight culture of test organisms in Mueller-Hinton broth was inoculated onto 10-ml drug-containing agar layers in petri dishes. Bacterial inocula contained approximately 10^6 colonyl-formingunits. Bacterial growth was observed after 20-hour incubation at 37° C. The MIC was defined as the lowest drug concentration which prevented visible bacterial growth.

[3] = system: S. epidermidis 8; experiment: as above; type: cell-based; details: Staphylococcus epidermidis; S. epidermidis 8, Gram +; calculated for free base; 20-hour incubation at 37° C; read-out: minimum inhibitory concentration (MIC)
Protocol: as §2

[4] = system: P. rettgeri IFO 3850; experiment: as above; type: cell-based; details: Providencia rettgeri, IFO3850; P. rettgeri IFO 3850, Gram -; calculated for free base; 20-hour incubation at 37° C; read-out: minimum inhibitory concentration (MIC)
Protocol: as §2

[5] = system: S. aureus 50774; experiment: as above; type: cell-based; details: Staphylococcus aureus; S. aureus 50774, Gram +; calculated for free base; 20-hour incubation at 37° C; read-out: minimum inhibitory concentration (MIC)
Protocol: as §2

[6] = system: S. pyogenes A65; experiment: as above; type: cell-based; details: Streptococcus pyogenes; S. pyogenes A65, Gram +; calculated for free base; 20-hour incubation at 37° C; read-out: minimum inhibitory concentration (MIC)
Protocol: as §2

[7] = system: K. pneumoniae 13; experiment: as above; type: cell-based; details: Klebsiella pneumoniae; K. pneumoniae 13, Gram -; calculated for free base; 20-hour incubation at 37° C; read-out: minimum inhibitory concentration (MIC)
Protocol: as §2

[8] = system: S. aureus 80; experiment: as above; type: cell-based; details: Staphylococcus aureus; S. aureus 80, Gram +; calculated for free base; 20-hour incubation at 37° C; read-out: minimum inhibitory concentration (MIC)
Protocol: as §2

[9] = system: E. coli P-51209; experiment: as above; type: cell-based; details: Escherichia coli, P51209; E. coli P-51209, Gram -; calculated for free base; 20-hour incubation at 37° C; read-out: minimum inhibitory concentration (MIC)
Protocol: as §2

[10] = system: S. aureus Smith; experiment: as above; type: cell-based; details: Staphylococcus aureus, Gram +, calculated for free base, 20-hour incubation at 37° C, read-out: minimum inhibitory concentration (MIC)
Protocol: as §2

[11] = system: E. coli P-51208; experiment: as above; type: cell-based; details: Escherichia coli, P51208; E. coli P-51208, Gram -; calculated for free base; 20-hour incubation at 37° C; read-out: minimum inhibitory concentration (MIC)
Protocol: as §2

[12] = system: M. lacunata P-7102; experiment: as above; type: cell-based; details: M. lacunata P-7102, Gram -; calculated for free base; 20-hour incubation at 37° C; read-out: minimum inhibitory concentration (MIC)
Protocol: as §2

[13] = system: Streptococcus pyogenes A65; experiment: In vivo efficacy against systemic infection in mice, S. pyogenes A65; design: species or system mice (ddY-S); details: A65, 168 h, intraperitoneal infection 3×10^7 cells, drug iv twice, immediately and 6 hours after infection, 7 days observation, calculated for free base, read-out: median effective dose (ED50)
Protocol: as §1, with “Streptococcus pyogenes […] Intraperitoneal” for “Staphylococcus aureus 50774 Intravenous”, “3×10^7” for “5×10^8”, “brain heart infusion broth.” for “saline.”

[14] = Solubility in water; type: physicochemical; details: distilled water, 25° C overnight
Protocol: The sample was added to distilled water (10 ml) and the solution was shaken in the supersaturated state for 30 minutes. After incubation at 25° C. overnight, the solution was filtered with a microfilter. The filtrate was diluted with 0.1 N hydrochloric acid. The absorbance at 270 nm of the solution was measured and the concentration (μg/ml) of the sample was calculated from a calibration curve separately prepared.

| Compound | ED50 [1] [mg/kg] | MIC [2] [µg/mL] | MIC [3] [µg/mL] | MIC [4] [µg/mL] | MIC [5] [µg/mL] | MIC [6] [µg/mL] | MIC [7] [µg/mL] | MIC [8] [µg/mL] | MIC [9] [µg/mL] | MIC [10] [µg/mL] | MIC [11] [µg/mL] | MIC [12] [µg/mL] | ED50 [13] [mg/kg] | solubility [14] [µg/mL] |
| --- | --- | --- | --- | --- | --- | --- | --- | --- | --- | --- | --- | --- | --- | --- |
| Cl.NC[C@@H]1CN(c2nc3c(cc2F)c(=O)c(C(=O)O)cn3C2CC2)C[C@@H]1Cl (relative stereo) [2-cis.HCl, 7-(cis-3-aminomethyl-4-chloro-1-pyrrolidinyl)-1-cyclopropyl6-fluoro-1,4-dihydro-4-oxo-1,8-naphthyridine-3-carboxylic acid hydrochloride] | 0.355 | 0.0125 | 0.0125 | 0.05 | 0.025 | 0.025 | 0.05 | 0.0125 | 0.78 | 0.025 | 0.78 | 3.13 | 0.235 | – |
| CNC[C@@H]1CN(c2nc3c(cc2F)c(=O)c(C(=O)O)cn3C2CC2)C[C@@H]1F (relative stereo) [3-cis, 1-cyclopropyl-6-fluoro-7-(cis-4-fluoro-3-methylaminomethyl-1-pyrrolidinyl)-1,4-dihydro-4-oxo-1,8-naphthyridine-3-carboxylic acid] | – | – | – | – | – | – | – | – | – | – | – | – | – | 789 (≈ 2090 µM) |
| CCNC[C@@H]1CN(c2nc3c(cc2F)c(=O)c(C(=O)O)cn3C2CC2)C[C@H]1F.Cl (relative stereo) [4-trans.HCl, 1-cyclopropyl-7-(trans-3-ethylaminomethyl-4-fluoro-1-pyrrolidinyl)-6-fluoro-1,4-dihydro-4-oxo-1,8-naphthyridine-3-carboxylic acid hydrochloride] | – | 0.0125 | 0.0125 | 0.05 | 0.025 | 0.05 | 0.05 | 0.0125 | 0.78 | 0.025 | 0.78 | 3.13 | 0.267 | – |
| NC[C@@H]1CN(c2nc3c(cc2F)c(=O)c(C(=O)O)cn3C2CC2)C[C@@H]1F (relative stereo) [Compound No. 1-cis, 7-(cis-3-aminomethyl-4-fluoro-1-pyrrolidinyl)-1-cyclopropyl-6-fluoro-1,4-dihydro-4-oxo-1,8-naphthyridine-3-carboxylic acid] | – | – | – | – | – | – | – | – | – | – | – | – | – | 927 (≈ 2540 µM) |
| Cl.NC[C@@H]1CN(c2nc3c(cc2F)c(=O)c(C(=O)O)cn3C2CC2)C[C@@H]1F (relative stereo) [Compound No. 1-cis.HCl, 7-(cis-3-aminomethyl-4-fluoro-1-pyrrolidinyl)-1-cyclopropyl-6-fluoro-1,4-dihydro-4-oxo-1,8-naphthyridine-3-carboxylic acid hydrochloride] | 0.274 | 0.0125 | 0.0125 | 0.05 | 0.025 | 0.0125 | 0.05 | 0.025 | 0.78 | 0.025 | 0.78 | 6.25 | 0.365 | – |
| Cl.NC[C@@H]1CN(c2nc3c(cc2F)c(=O)c(C(=O)O)cn3C2CC2)C[C@H]1F (relative stereo) [Compound No. 1-trans.HCl, 7-(trans-3-aminomethyl-4-fluoro-1-pyrrolidinyl)-1-cyclopropyl-6-fluoro-1,4-dihydro-4-oxo-1,8-naphthyridine-3carboxylic acid hydrochloride] | – | 0.0063 | 0.0125 | 0.05 | 0.025 | 0.025 | 0.05 | 0.025 | 0.78 | 0.025 | 0.78 | 3.13 | – | – |
| NC[C@@H]1CN(c2nc3c(cc2F)c(=O)c(C(=O)O)cn3C2CC2)C[C@@H]1Cl (relative stereo) [Compound No. 2-cis, 7-(cis-3-aminomethyl-4-chloro-1-pyrrolidinyl)-1-cyclopropyl-6-fluoro-1,4-dihydro-4-oxo-1,8-naphthyridine-3-carboxylic acid] | – | – | – | – | – | – | – | – | – | – | – | – | – | 713 (≈ 1870 µM) |
| CCn1cc(C(=O)O)c(=O)c2cc(F)c(N3CCC(CN)C3)nc21.Cl (stereo not drawn) [Compound A, 7-(3-aminomethyl-1-pyrrolidinyl)-1-ethyl-6-fluoro-1,4-dihydro-4-oxo-1,8-naphthyridine-3-carboxylic acid hydrochloride, reference compound] | 2.79 | 0.39 | 0.1 | 0.78 | 0.2 | 0.39 | 0.39 | 0.39 | 12.5 | 0.1 | 6.25 | 50 | 3.75 | – |
| Cl.NCC1CCN(c2nc3c(cc2F)c(=O)c(C(=O)O)cn3C2CC2)C1 (stereo not drawn) [Compound B, 7-(3-aminomethyl-1-pyrrolidinyl)-1-cyclopropyl-6-fluoro-1,4-dihydro-4-oxo-1,8-naphthyridine-3-carboxylic acid hydrochloride, reference compound] | 0.701 | 0.025 | 0.025 | 0.1 | 0.025 | 0.05 | 0.1 | 0.05 | 3.13 | 0.05 | 3.13 | 12.5 | 0.601 | – |
